Experimental data taken from PMC10518257 (Nature Cancer, 2023).
Values joined by “and” are separate entries in the source; they are usually repeats but may differ in a detail not shown here. Equal values may be shown once. Read-outs that look alike come from different tables or passages of the source.

Key:
[1] = Animal weight of tumor-bearing mice; conditions: for Animal Weight (g), Mean: Ba/F3-KIF5B::RET tumor-bearing mice (Ext. Data Fig 8h); for Animal Weight: individual animals
[2] = system: Ba/F3 cells expressing KIF5B–RET^V804M; assay: Growth inhibition assay in Ba/F3 cells (CellTiter-Glo, 72 h); type: cell-based; conditions: replicate sets
[3] = system: LUAD-0002AS1 cells (KIF5B::RET); assay: Dose-response western blotting, EC50 for inhibition of protein phosphorylation; type: cell-based; conditions: Homo sapiens, LUAD-0002AS1, 2 h, densitometry
MMNK1 cholangiocytes = assay: Growth inhibition (alamarBlue, 96 h); type: cell-based, human; conditions: for raw viability signal (Source Data Fig. 3b-c): MMNK, replicates

SMILES: COc1ccc(CN2C3CC2CN(c2ccc(-c4cc(OCC(C)(C)O)cn5ncc(C#N)c45)cn2)C3)cn1 [Selpercatinib]
- Animal Weight, Mean ([1]; Ba/F3-KIF5B::RET G810R (Fig 8f), Selpercatinib 10 mg/kg BID, day 8): 26.00 g
- Animal Weight, Mean ([1]; Ba/F3-KIF5B::RET G810R (Fig 8f), Selpercatinib 10 mg/kg BID, day 11): 26.60 g
- Animal Weight, Mean ([1]; Ba/F3-KIF5B::RET G810R (Fig 8f), Selpercatinib 10 mg/kg BID, day 15): 26.48 g
- Animal Weight, Mean ([1]; Ba/F3-KIF5B::RET G810R (Fig 8g), Selpercatinib 30 mg/kg BID, day 1): 25.8 g
- Animal Weight, Mean ([1]; Ba/F3-KIF5B::RET G810R (Fig 8g), Selpercatinib 30 mg/kg BID, day 4): 26.9 g
- Animal Weight, Mean ([1]; Ba/F3-KIF5B::RET G810R (Fig 8g), Selpercatinib 30 mg/kg BID, day 8): 27.0 g
- Animal Weight, Mean ([1]; Ba/F3-KIF5B::RET G810R (Fig 8g), Selpercatinib 30 mg/kg BID, day 11): 26.8 g
- Animal Weight, Mean ([1]; Ba/F3-KIF5B::RET G810R (Fig 8g), Selpercatinib 30 mg/kg BID, day 15): 26.8 g
- Animal Weight (g), Mean ([1]; 3 mg/kg BID, day 1): 28.0 g
- Animal Weight (g), Mean ([1]; 3 mg/kg BID, day 4): 28.1 g
- Animal Weight (g), Mean ([1]; 3 mg/kg BID, day 8): 28.6 g
- Animal Weight (g), Mean ([1]; 3 mg/kg BID, day 11): 28.6 g
- Animal Weight (g), Mean ([1]; 3 mg/kg BID, day 15): 28.4 g
- Animal Weight (g), Mean ([1]; 10 mg/kg BID, day 1): 27.7 g
- Animal Weight (g), Mean ([1]; 10 mg/kg BID, day 4): 27.7 g
- Animal Weight (g), Mean ([1]; 10 mg/kg BID, day 8): 28.2 g
- Animal Weight (g), Mean ([1]; 10 mg/kg BID, day 11): 28.7 g
- Animal Weight (g), Mean ([1]; 10 mg/kg BID, day 15): 28.6 g
- Animal Weight (g), Mean ([1]; 30 mg/kg BID, day 1): 28.1 g
- Animal Weight (g), Mean ([1]; 30 mg/kg BID, day 4): 27.9 g
- Animal Weight (g), Mean ([1]; 30 mg/kg BID, day 8): 29.0 g
- Animal Weight (g), Mean ([1]; 30 mg/kg BID, day 11): 29.6 g
- Animal Weight (g), Mean ([1]; 30 mg/kg BID, day 15): 29.2 g
- Animal Weight (g), Mean ([1]; 100 mg/kg BID, day 1): 26.8 g
- Animal Weight (g), Mean ([1]; 100 mg/kg BID, day 4): 26.1 g
- Animal Weight (g), Mean ([1]; 100 mg/kg BID, day 8): 23.3 g
- Animal Weight ([1]; LUAD-0077AS1 PDX, Selpercatinib 10 mg/kg BID, treatment day 0): 24 g and 25 g and 21 g and 23 g (2×)
- Animal Weight ([1]; LUAD-0077AS1 PDX, Selpercatinib 10 mg/kg BID, treatment day 4): 24 g (3×) and 21 g and 23 g
- Animal Weight ([1]; LUAD-0077AS1 PDX, Selpercatinib 10 mg/kg BID, treatment day 7): 23 g (3×) and 21 g and 24 g
- Animal Weight ([1]; LUAD-0077AS1 PDX, Selpercatinib 10 mg/kg BID, treatment day 11): 24 g (2×) and 23 g (2×) and 21 g
- Animal Weight ([1]; LUAD-0077AS1 PDX, Selpercatinib 10 mg/kg BID, treatment day 14): 23 g and 24 g (2×) and 21 g and 25 g
- Animal Weight ([1]; LUAD-0077AS1 PDX, Selpercatinib 10 mg/kg BID, treatment day 19): 25 g and 23 g and 22 g and 26 g and 24 g
- Animal Weight ([1]; LUAD-0087AS2 PDX, Selpercatinib 30 mg/kg BID, treatment day 0): 27 g (4×) and 28 g
- Animal Weight ([1]; LUAD-0087AS2 PDX, Selpercatinib 30 mg/kg BID, treatment day 3): 26 g (3×) and 28 g and 27 g
- Animal Weight ([1]; LUAD-0087AS2 PDX, Selpercatinib 30 mg/kg BID, treatment day 7): 27 g (3×) and 26 g and 28 g
- Animal Weight ([1]; LUAD-0087AS2 PDX, Selpercatinib 30 mg/kg BID, treatment day 10): 27 g (3×) and 26 g (2×)
- Animal Weight ([1]; LUAD-0087AS2 PDX, Selpercatinib 30 mg/kg BID, treatment day 14): 26 g (3×) and 27 g (2×)
- Animal Weight ([1]; LUAD-0087AS2 PDX, Selpercatinib 30 mg/kg BID, treatment day 17): 27 g (4×) and 26 g
- Animal Weight ([1]; LUAD-0087AS2 PDX, Selpercatinib 30 mg/kg BID, treatment day 21): 28 g and 27 g (2×) and 26 g and 25 g
- Animal Weight ([1]; LUAD-0087AS2 PDX, Selpercatinib 30 mg/kg BID, treatment day 24): 28 g (2×) and 27 g (2×) and 26 g
- Animal Weight ([1]; LUAD-0087AS2 PDX, Selpercatinib 30 mg/kg BID, treatment day 29): 26 g (2×) and 27 g and 28 g (2×)
- Animal Weight ([1]; LUAD-0087AS2 PDX, Selpercatinib 30 mg/kg BID, treatment day 32): 26 g (2×) and 28 g (3×)
- Animal Weight ([1]; LUAD-0087AS2 PDX, Selpercatinib 30 mg/kg BID, treatment day 35): 26 g (2×) and 28 g and 27 g (2×)
- Animal Weight ([1]; LUAD-0087AS2 PDX, Selpercatinib 30 mg/kg BID, treatment day 38): 23 g (2×) and 28 g and 29 g and 26 g
- Animal Weight ([1]; LUAD-0087AS2 PDX, Selpercatinib 30 mg/kg BID, treatment day 42): 27 g (4×) and 26 g
- Animal Weight ([1]; LUAD-0087AS2 PDX, Selpercatinib 30 mg/kg BID, treatment day 45): 28 g (3×) and 27 g (2×)
- GI50 ([2]; Ba/3-KIF5B-RET-V804M): 36.4 nM and 32.9 nM
- GI50 ([2]; Mus musculus, BaF3, Ba/3-KIF5B-RET-V804M): 30.6 nM
- EC50 ([3]; read-out: EC50 for Inhibition of Protein Phosphorylation (95% CI), AKT S473): 2 nM
- EC50 ([3]; read-out: EC50 for Inhibition of Protein Phosphorylation (95% CI), ERK1/2 T202/Y204): 1.5 nM
- EC50 ([3]; read-out: EC50 for Inhibition of Protein Phosphorylation (95% CI), MEK1/2 S217/S221): 1.3 nM
- EC50 ([3]; read-out: EC50 for Inhibition of Protein Phosphorylation (95% CI), P70 RSK T421/S424): 1.4 nM
- EC50 ([3]; read-out: EC50 for Inhibition of Protein Phosphorylation (95% CI), RET Y905): 0.4 nM
- EC50 ([3]; read-out: EC50 for Inhibition of Protein Phosphorylation (95% CI), S6RP S235/S236): 0.5 nM
- IC50 (MMNK1 cholangiocytes; Homo sapiens, 96 h, read-out: IC50 for Inhibition of Growth (95% CI)): 7930 nM
- raw viability signal (Source Data Fig. 3b-c) (MMNK1 cholangiocytes; 0.01 nM): 14041 and 14658.8
- raw viability signal (Source Data Fig. 3b-c) (MMNK1 cholangiocytes; 0.1 nM): 13930.7 and 15331
- raw viability signal (Source Data Fig. 3b-c) (MMNK1 cholangiocytes; 1 nM): 13461 and 14668.6
- raw viability signal (Source Data Fig. 3b-c) (MMNK1 cholangiocytes; 10 nM): 13703.4 and 14128
- raw viability signal (Source Data Fig. 3b-c) (MMNK1 cholangiocytes; 100 nM): 13905.3 and 14051.8
- raw viability signal (Source Data Fig. 3b-c) (MMNK1 cholangiocytes; 1000 nM): 12731.7 and 12599.2
- raw viability signal (Source Data Fig. 3b-c) (MMNK1 cholangiocytes; 10000 nM): 6976.41 and 6993.09
